Assay [1] deals with endothelium-intact aortic rings (NPR-C mediated). Put plainly: Aortic ring relaxation, endothelium-intact rings pre-contracted with 40 mM KCl (Example 3). On the set-up: species or system rat. On the procedure: (§1) Male Sprague Dawley rats were killed and the descending thoracic aorta rapidly removed and flushed with physiological solution. After being cleared of adhering fat and connective tissue, 5 mm rings were mounted under 10 g resting tension, between two stainless steel hooks, in organ baths (37° C.) containing carbogenated (95% O2 and 5% CO2) physiological salt solution of the following composition (mM): NaCl, 118.4; NaHCO3, 25; glucose, 11; KCl, 4.7; MgSO4, 1.2; KH2PO4, 1.2 and CaCl2, 2.5. The lower hook was attached to a tissue holder and the upper hook to a force displacement transducer (Grass FTO3). Where indicated endothelial cells were removed by gentle rubbing of the intimal surface with a wire. To confirm the presence or absence of endothelial cells, tissues were precontracted with a sub-maximal concentration of phenylephrine (0.3 μM) and the response to acetylcholine (ACh, 10 μM) observed. Ach-induced relaxation greater than 80% of maximum indicated the presence of endothelium; whereas Ach-induced relaxation less than 10% indicated the absence of endothelium. Ring preparations under resting tension were conditioned by two contraction/relaxation cycles with 40 mM KCl, contracted by a third application of 40 mM KCl and then relaxed with different doses of the venom peptides. Responses were expressed as a percentage relaxation of the precontraction by KCl.

The subject of a further assay is conscious rabbits. Put plainly: Blood pressure and heart rate in conscious rabbits, intravenous infusion dose-response (Example 8). To be noted: for Diastolic BP, mean difference from control / HR, mean difference from control / Mean BP, mean difference from control / Systolic BP, mean difference from control: 45 min.
The test system of assay [2] is endothelium-denuded aortic rings (GC-A mediated). Put plainly: Aortic ring relaxation, endothelium-denuded rings pre-contracted with 40 mM KCl (Example 3). On the set-up: species or system rat. On the procedure:
as §1

For a further assay, the target named is T1, rat GC-A (Rattus norvegicus, UniProt P18910).
T1 construct: expressed in transfected cells
T1 sequence (P18910 29-1057): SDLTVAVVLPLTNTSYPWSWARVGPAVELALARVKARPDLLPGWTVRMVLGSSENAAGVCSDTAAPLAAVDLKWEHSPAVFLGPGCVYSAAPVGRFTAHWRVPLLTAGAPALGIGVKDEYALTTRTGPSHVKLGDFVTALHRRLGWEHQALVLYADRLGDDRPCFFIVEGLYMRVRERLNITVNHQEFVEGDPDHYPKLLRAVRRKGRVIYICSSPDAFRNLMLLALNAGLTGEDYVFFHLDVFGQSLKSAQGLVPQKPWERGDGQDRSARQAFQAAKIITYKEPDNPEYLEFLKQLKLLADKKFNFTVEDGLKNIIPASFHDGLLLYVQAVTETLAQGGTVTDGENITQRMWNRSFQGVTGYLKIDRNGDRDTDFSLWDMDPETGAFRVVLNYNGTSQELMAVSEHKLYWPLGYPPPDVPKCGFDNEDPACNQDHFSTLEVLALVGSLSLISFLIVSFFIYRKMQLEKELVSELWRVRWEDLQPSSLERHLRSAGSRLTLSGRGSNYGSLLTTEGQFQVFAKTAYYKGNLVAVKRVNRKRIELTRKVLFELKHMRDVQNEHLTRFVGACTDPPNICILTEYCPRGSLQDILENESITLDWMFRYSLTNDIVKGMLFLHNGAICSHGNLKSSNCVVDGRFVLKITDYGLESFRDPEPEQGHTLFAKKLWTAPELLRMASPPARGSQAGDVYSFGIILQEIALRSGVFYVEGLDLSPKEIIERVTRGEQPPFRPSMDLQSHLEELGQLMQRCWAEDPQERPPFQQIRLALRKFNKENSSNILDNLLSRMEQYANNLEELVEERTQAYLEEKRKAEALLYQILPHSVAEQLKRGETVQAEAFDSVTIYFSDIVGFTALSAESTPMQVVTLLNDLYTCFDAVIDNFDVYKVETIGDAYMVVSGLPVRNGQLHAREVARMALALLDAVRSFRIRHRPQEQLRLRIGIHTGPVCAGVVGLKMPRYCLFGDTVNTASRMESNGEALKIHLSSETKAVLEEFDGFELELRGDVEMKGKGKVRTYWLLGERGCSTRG
Put plainly: Cell cyclic GMP elevations in HEK-293 cells stably expressing rat GC-A (Example 4). The assay is classed as cell-based. To be noted: 0.1 μM; 293 cells over-expressing GC-A. The source says:
The human embryonic kidney 293 (HEK-293) cell line was used for the stable expression of rat GC-A (GC-A/293). Cells expressing rat GC-A (GC-A/293) in the HEK-293 cell line were as previously described (Potter L. R., and Garbers D. L., (1992), J Biol Chem. 26, 14531-4) and determination of cGMP elevations was undertaken as previously described (Chrisman et al. T. D., Schulz, S., Potter, L. R. and Garbers, D. L., (1993,) J. Biol. Chem. (1993) 268 (5), 3698-3703). Responses were expressed as a percentage of the effect produced by ANP.

The mark [3] stands for this setting: after 1 hour recovery period, Table 10A.
Setting [4] is: average of the 3 doses 1.0, 2.0, 4.0 μg/kg/min.

Regarding “SDSKIGDGCFGLPLDHIGSVSGLGCNRPVQNRPKK (A portion of a natriuretic peptide) [TNPa]”, the “competitive inhibition of the binding of TNPc” value in assay [1] (endothelium-intact aortic rings, TNPa or TNPb followed by TNPc 0.1 μM) is on record as “lack the ability to competitively inhibit the binding of TNPc”. The “percentage relaxation of the precontraction by KCl” value in assay [1] (endothelium-intact rat aortas pre-contracted with 40 mM KCl, peptide 0.1 μM) is “approximately 20%”. Also, in the assay on conscious rabbits (setting [3]), the “Recovery (MAP)” value turned out to be 65.3 mm Hg and the “Recovery Delta SED (MAP)” value was determined as 3.0 ± 2.9 mm Hg. Besides, in the assay with conscious rabbits (setting [4]), the “Diastolic BP, Average Response SED” value is given as −7.9 ± 0.9 mmHg; the “Mean BP (MAP), Average Response SED” value is recorded as −8.7 ± 1.1 mmHg; the “Systolic BP, Average Response SED” value is given as −5.7 ± 1.3 mmHg. Besides, the “MAP at final dose” value with conscious rabbits (highest dose, Table 10A) is given as 62.3 mm Hg. The “Treatment Effect, change of mean blood pressure during the infusion” value in the assay with conscious rabbits (highest dose, Table 10A, groups 1, 2A and 3) is listed as −11.6 mm Hg. Further, in the assay on conscious rabbits (i.v. infusion 1.0 μg/kg/min), the “Diastolic BP, mean difference from control” value (from here on “Diastolic BP, mean difference”) was −6.0 mmHg; the “HR, mean difference from control” value was −16.1 bpm; the “Mean BP, mean difference from control” value was −6.4 mmHg; the “Systolic BP, mean difference from control” value (“Systolic BP, mean difference” below) is −2.8 mmHg. Also, in the assay on conscious rabbits (i.v. infusion 2.0 μg/kg/min), the “Diastolic BP, mean difference” value is −7.7 mmHg; the “HR, mean difference from control” value is −15.9 bpm; the “Mean BP, mean difference from control” value is −8.0 mmHg; the “Systolic BP, mean difference” value is −4.9 mmHg. In the assay with conscious rabbits (i.v. infusion 4.0 μg/kg/min), the “Diastolic BP, mean difference” value was −9.9 mmHg; the “HR, mean difference from control” value is listed as −9.8 bpm; the “Mean BP, mean difference from control” value is recorded as −11.6 mmHg; the “Systolic BP, mean difference” value is reported as −9.4 mmHg. Moreover, the “competitive inhibition of the binding of TNPc” value in assay [2] (endothelium-denuded aortic rings, TNPa or TNPb followed by TNPc 0.1 μM) is “lack the ability to competitively inhibit the binding of TNPc”. Besides, the “percentage relaxation of the precontraction by KCl” value in assay [2] (endothelium-denuded rat aortas pre-contracted with 40 mM KCl, peptide 0.1 μM) was “no relaxation”. Further, the “cGMP elevations, percentage of the effect produced by ANP” value with rat GC-A was “lesser effects on cGMP elevations”.

The record behind these values is patent publication US8058242B2, “Chimeric proteins with natriuretic activity” (The University of Queensland, priority 2004, dated 2011).
